Data published in patent publication US20020098210A1, “FORMULATIONS AND METHODS FOR REDUCING SKIN IRRITATION” (priority 1997, published 2002).
Read-outs that look alike come from different tables or passages of the source.

Key:
[1] = test system: lactic acid skin irritation; test: Lactic acid irritation trial, pretreatment test (anti-irritant applied 15 minutes prior to irritant); format: in vivo, human; conditions: for Percent Inhibition (average inhibition of cumulative irritation) / Percent Inhibition: pretreatment tests; for Percent Inhibition (average inhibition of cumulative irritation): cation salt 250 mM, lactic acid irritant, average over trials; for Percent Inhibition: representative panels, 250 mM, vehicle Visible Difference; for inhibition of skin irritation (in words): salts in Elizabeth Arden Visible Difference Refining Toner, various amounts
Text: (§1) The following scaled scores were used for sensory assessment: […]

[2] = test system: lactic acid skin irritation; test: Lactic acid irritation trial, time zero test (anti-irritant applied simultaneously with irritant); format: in vivo, human; conditions: time zero tests; for Percent Inhibition (average inhibition of cumulative irritation): cation salt 250 mM, lactic acid irritant, average over trials; for Percent Inhibition: representative panels, 250 mM, vehicle 10% EtOH
Text: as §1

[3] = test system: skin irritation induced by topical irritants (lactic acid, glycolic acid, capryloyl salicylic acid, benzoyl peroxide); test: Human clinical trials of anti-irritant activity (general statements); format: in vivo; conditions: topical application
Procedure: The objective of the clinical trials was to determine whether and to what extent topical formulations of the calcium cation reduced or prevented skin irritation caused by certain severe skin irritants, including particularly lactic acid and glycolic acid (which are hydroxy acids), capryloyl salicylic acid (a β-hydroxy acid ester) and capsaicin (an isolate from cayenne and paprika known for its skin-irritating properties). The trials were conducted in a double blind, randomized, vehicle-controlled manner. Various formulations of the invention were tested in over 460 people.

[4] = test system: lactic acid skin irritation
Procedure: Tests were conducted in multiple panels of from 7 to 12 subjects each. Subjects were instructed not to wear any makeup or facial lotions to the clinic the day of testing. The subjects were instructed to wash their face with Ivory bar soap in the clinic prior to application of test solutions.
Lactic acid skin-irritant compositions were formulated in an appropriate vehicle prior to application to the skin of the subjects.
Controls were performed by applying corresponding formulation(s) (pretreatment and/or skin-irritant composition) with an equimolar amount of sodium chloride to a contralateral portion of the subject's skin. Typically, the test materials were applied to the face of the subject.
All test solutions (including controls) were applied in a double blind, randomized fashion using the prepared solutions as previously placed in coded vial designated for use on either the right or left side of the face (or other test area). Solutions were typically applied using a cotton swab (six strokes) or sponge applicator to the face and cheek area extending from the midline of the nose over to the center of the cheek and from the cheek bone down to the jaw line. Application was made first to the right side and then to the left.
Sensory assessment scores were recorded for each treated side of the subject's skin every minute for 15 minutes or until three consecutive scores of “zero” irritation were obtained. The following scaled scores were used for sensory assessment:
Symptom scores were cumulated, separately for the cation-treated and control-treated areas, for each individual and also for the panel as a whole. Individuals not reporting a cumulative score of at least “7” on at least one treatment area were excluded (in a blinded fashion) from further analysis in order to ascertain anti-irritant efficacy with respect to the more severely-susceptible test subjects. From a practical standpoint, scores of “0” and “1” on the above scale would be considered highly desirable for a commercial product because such a response would likely not result in a consumer ceasing to use a product.

Compound: [Ca+2].[Cl-].[Cl-] [Calcium chloride]
- Percent Inhibition (average inhibition of cumulative irritation) [1]: 35%
- Percent Inhibition [1]: 35%
- inhibition of skin irritation (in words) [1]: effective to inhibit skin irritation
- Percent Inhibition (average inhibition of cumulative irritation) [2]: 65%
- Percent Inhibition [2]: 61%
- anti-irritant activity (in words) [3]: particularly active as anti-irritants

Compound: O=[N+]([O-])[O-].O=[N+]([O-])[O-].[Ca+2] [Calcium nitrate]
- Percent Inhibition (average inhibition of cumulative irritation) [1]: 45%
- Percent Inhibition [1]: 44%
- inhibition of skin irritation (in words) [1]: effective to inhibit skin irritation
- Percent Inhibition (average inhibition of cumulative irritation) [2]: 90%
- Percent Inhibition [2]: 85%
- Percent Inhibition (cumulative irritation inhibition) ([4]; calcium nitrate 31 mM): 26%
- Percent Inhibition (cumulative irritation inhibition) ([4]; calcium nitrate 62 mM): 52%
- Percent Inhibition (cumulative irritation inhibition) ([4]; calcium nitrate 125 mM): 83%
- Percent Inhibition (cumulative irritation inhibition) ([4]; calcium nitrate 250 mM): 82%
- Percent Inhibition (cumulative irritation inhibition) ([4]; calcium nitrate 500 mM): 67%
- anti-irritant activity (in words) [3]: particularly active as anti-irritants

Compound: [Ca+2] [calcium cation, calcium(II)]
- anti-irritant activity (in words) [3]: significant and reproducible anti-irritant effects
- anti-irritant activity (in words) ([3]; listed as calcium(II) (Ca^2+)): effective

Compound: CC(=O)[O-].CC(=O)[O-].[Ca+2] [Calcium acetate]
- Percent Inhibition (average inhibition of cumulative irritation) [1]: 40%
- Percent Inhibition [1]: 30%
- inhibition of skin irritation (in words) [1]: effective to inhibit skin irritation
- Percent Inhibition (average inhibition of cumulative irritation) [2]: 60%
- Percent Inhibition [2]: 65%
- anti-irritant activity (in words) [3]: particularly active as anti-irritants

Compound: Calcium gluconate
- Percent Inhibition [1]: 40%
- Percent Inhibition (average inhibition of cumulative irritation) [2]: 40%
- Percent Inhibition [2]: 49%
- anti-irritant activity (in words) [3]: particularly active as anti-irritants
